Results published in US20150238477A1, “Method of Treating Lung Adenocarcinoma” (EXELIXIS, INC., priority 2012, published 2015).

Columns and labels:
KIF5B-RET = target: T1, KIF5B-RET (Homo sapiens, UniProt P07949); details: in vitro studies; cited from earlier work
T1 sequence (P07949 713-1063 limits assumed): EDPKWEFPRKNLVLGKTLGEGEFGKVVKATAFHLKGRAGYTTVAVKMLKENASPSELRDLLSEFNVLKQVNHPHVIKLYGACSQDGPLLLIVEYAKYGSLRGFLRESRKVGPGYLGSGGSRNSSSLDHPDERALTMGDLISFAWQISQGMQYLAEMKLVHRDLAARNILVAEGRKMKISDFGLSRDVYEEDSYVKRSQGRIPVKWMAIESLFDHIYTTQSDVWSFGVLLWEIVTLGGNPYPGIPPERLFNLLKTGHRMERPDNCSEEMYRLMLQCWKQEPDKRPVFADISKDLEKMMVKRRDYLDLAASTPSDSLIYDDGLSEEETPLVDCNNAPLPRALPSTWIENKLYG

RET = target: T2, RET (Homo sapiens, UniProt P07949, C634W); assay: phosphorylation of RET in TT xenograft tumors in vivo (Western immunoblot); set-up: species or system mice
T2 construct: endogenous in cells; host or cells: TT cells (human medullary thyroid carcinoma), in culture or as xenograft tumours in nu/nu mice
T2 sequence (P07949 29-1114 C634W): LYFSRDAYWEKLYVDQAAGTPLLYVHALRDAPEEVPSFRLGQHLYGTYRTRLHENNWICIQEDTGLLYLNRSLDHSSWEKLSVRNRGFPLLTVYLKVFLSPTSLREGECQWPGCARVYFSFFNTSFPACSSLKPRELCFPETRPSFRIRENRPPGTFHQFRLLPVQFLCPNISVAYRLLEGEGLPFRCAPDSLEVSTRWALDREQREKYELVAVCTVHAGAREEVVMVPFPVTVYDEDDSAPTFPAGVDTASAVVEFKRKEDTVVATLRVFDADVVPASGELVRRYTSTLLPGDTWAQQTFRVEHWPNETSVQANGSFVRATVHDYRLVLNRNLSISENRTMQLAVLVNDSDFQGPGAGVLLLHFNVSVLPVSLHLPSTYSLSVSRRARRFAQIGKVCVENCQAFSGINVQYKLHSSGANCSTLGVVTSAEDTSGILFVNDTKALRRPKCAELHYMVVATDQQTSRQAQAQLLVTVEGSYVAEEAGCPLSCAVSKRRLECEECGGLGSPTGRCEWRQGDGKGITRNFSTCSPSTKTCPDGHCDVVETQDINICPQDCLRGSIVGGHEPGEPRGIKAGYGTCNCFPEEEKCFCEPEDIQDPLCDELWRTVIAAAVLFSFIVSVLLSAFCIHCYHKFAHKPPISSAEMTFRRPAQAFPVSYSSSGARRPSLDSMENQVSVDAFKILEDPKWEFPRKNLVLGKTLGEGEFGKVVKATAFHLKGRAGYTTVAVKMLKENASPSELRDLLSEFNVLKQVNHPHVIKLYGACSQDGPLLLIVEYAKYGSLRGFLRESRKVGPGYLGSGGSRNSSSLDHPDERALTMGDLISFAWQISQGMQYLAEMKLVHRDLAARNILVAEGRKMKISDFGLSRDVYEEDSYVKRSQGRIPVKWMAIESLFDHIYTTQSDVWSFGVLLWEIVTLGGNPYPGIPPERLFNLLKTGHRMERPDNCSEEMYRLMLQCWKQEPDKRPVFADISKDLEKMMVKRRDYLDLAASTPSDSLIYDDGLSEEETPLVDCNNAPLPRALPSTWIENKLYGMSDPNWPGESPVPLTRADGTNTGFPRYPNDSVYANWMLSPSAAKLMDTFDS

AKT and ERK = assay: phosphorylation of AKT and ERK in TT xenograft tumors in vivo; set-up: species or system mice; details: single 100-mg/kg oral dose
Description: Levels of phosphorylated and total RET and were determined in pooled lysates by Western immunoblot analysis. In a separate study, mice bearing TT tumors were administered a single oral dose of cabozantinib (100 mg/kg) or water vehicle, and levels of phosphorylated and total RET, AKT, and ERK in tumor lysates were determined at the indicated time points post dose. Densitometric quantitation of the duration of inhibition of phosphorylation of RET versus plasma concentrations of cabozantinib. Representative Western blot images are shown. […] This effect was reversible as RET phosphorylation returned to basal levels by 48 hours after treatment as depicted in FIG. 1C.

[1] = mouse, in vivo
Description: (§1) Nu/nu mice bearing TT tumors were orally administered once daily water vehicle (□) or cabozantinib at 3 mg/kg (∇), 10 mg/kg (◯), 30 mg/kg (♦), or 60 mg/kg (⋄) for 21 days. Tumor weights were determined twice weekly. Data points represent the mean tumor weight (in milligrams) and SE for each treatment group. Circulating calcitonin levels were determined in serum preparations from whole blood collected after the final indicated doses (* indicates a significant, P <0.05, reduction in circulating calcitonin when compared to serum samples from vehicle-treated control animals).
. Given that TT xenograft tumors are known to secrete high amounts of human calcitonin that correlates with tumor size, serum concentrations of circulating calcitonin were determined at the end of the dosing period. […]; P <0.005) at both the 30- and 60-mg/kg doses when compared to vehicle control animals, as depicted in FIG. 2B. Moreover, this reduction in circulating plasma calcitonin correlated with TT tumor growth inhibition described above. […]

[2] = target: T3, KIF5B-RET fusion-positive NSCLC (Homo sapiens, UniProt P07949); assay: case study, phase 1 monotherapy in a patient with KIF5B-RET fusion-positive NSCLC; assay type: in vivo
T3 construct: expression of variant 1 transcripts (KIF5B exon 15; RET exon 12); endogenous in cells; host or cells: lung adenocarcinoma cells of the patient (pleural effusion cells); the other entry of the earlier key: KIF5B (P33176, Kinesin-1 heavy chain)
T3 sequence (P07949 with tags, fused parts or gaps): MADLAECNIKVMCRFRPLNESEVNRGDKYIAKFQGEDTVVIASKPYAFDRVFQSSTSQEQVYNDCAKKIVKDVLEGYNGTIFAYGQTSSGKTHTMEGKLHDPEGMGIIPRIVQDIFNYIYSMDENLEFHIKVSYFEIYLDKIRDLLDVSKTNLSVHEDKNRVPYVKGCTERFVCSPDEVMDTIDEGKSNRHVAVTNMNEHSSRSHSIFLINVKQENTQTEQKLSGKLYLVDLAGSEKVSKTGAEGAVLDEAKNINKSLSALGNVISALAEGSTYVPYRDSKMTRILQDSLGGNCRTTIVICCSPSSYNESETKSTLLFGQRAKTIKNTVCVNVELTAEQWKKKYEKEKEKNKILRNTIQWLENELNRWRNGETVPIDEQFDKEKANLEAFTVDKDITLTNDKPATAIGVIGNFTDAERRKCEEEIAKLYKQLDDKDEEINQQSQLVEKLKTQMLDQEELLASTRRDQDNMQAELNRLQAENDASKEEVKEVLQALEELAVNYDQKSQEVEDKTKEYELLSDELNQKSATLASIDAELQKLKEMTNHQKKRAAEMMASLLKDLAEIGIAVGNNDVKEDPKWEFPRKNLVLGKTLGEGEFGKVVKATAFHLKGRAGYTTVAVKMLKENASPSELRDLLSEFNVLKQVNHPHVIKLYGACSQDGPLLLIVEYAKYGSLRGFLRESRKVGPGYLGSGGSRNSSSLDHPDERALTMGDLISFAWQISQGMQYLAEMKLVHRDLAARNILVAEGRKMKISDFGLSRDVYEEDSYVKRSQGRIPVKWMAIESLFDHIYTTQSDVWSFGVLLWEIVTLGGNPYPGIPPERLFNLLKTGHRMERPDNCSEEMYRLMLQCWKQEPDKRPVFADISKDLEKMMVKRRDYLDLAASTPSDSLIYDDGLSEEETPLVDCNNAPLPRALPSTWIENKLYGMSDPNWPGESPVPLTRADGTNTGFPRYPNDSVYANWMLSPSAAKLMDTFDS
Text: A person who was a former smoker presented in April 2009 for evaluation of a right pleural effusion. […] There was also no tumor in either the neck or thyroid on the CT scans. The patient was diagnosed as having stage IIIB (cT4N0M0, 6th edition of the International System for Staging Lung cancer) adenocarcinoma of the lung. […] Re-growth of primary tumor was, however, reported 8 months after the end of therapy. The patient subsequently received 13 cycles of docetaxel as second-line treatment and 2 cycles of an investigational drug (anti-HER2 [human epidermal growth factor receptor type2] antibody) as third-line treatment. […] Yamamoto, N., Nokihara, H., Wakui, H., Yamada, Y., Frye, J., DeCillis, A., and Tamura, T. A phase 1 multiple ascending dose study of cabozantinib (XL184) monotherapy in Japanese patients with advanced solid tumors. Molecular Cancer Therapeutics. 2011 10 suppl 1 (abstr C26) and Nokihara, H., Yamamoto, N., Nakamichi, S., Wakui, H., Yamada, Y., Frye, J., Decillis, A., and Tamura, T. in Annals of Oncology, Vol. 23, Supplement 9, published September 17, 2012.
In February 2012, they terminated cabozantinib monotherapy due to progressive disease.

medullary thyroid cancer = details: 25 of 37 patients with MTC; cited from earlier work
TT xenograft tumors = assay: TT xenograft tumor growth; assay type: in vivo, nu/nu mice; details: oral once daily, 21 days
Description: as §1

[3] = plasma concentrations in TT xenograft study; assay type: in vivo, nu/nu mice; details: 30- and 60-mg/kg doses, oral once daily

Row | SMILES | growth and signaling properties mediated by KIF5B-RET after treatment (KIF5B-RET) | time of inhibition of phosphorylation of RET post dose (RET; single 100-mg/kg oral dose) | time at which RET phosphorylation returned to basal levels (RET; single 100-mg/kg oral dose, after treatment) | inhibition of phosphorylation of RET in tumors (RET; single ascending oral dose, tumors collected 4 h post dose) | time of reduced phosphorylation levels of AKT and ERK post dose (AKT and ERK) | tolerability (stable body weights) [1] | adverse event leading to drug interruptions ([2]; during 10 cycles (months) of therapy, without clinical symptoms of pancreatitis) | response of primary lung tumor on chest CT ([2]; starting dose 40 mg once a day, at 9 weeks, confirmed at 17 weeks) | tumor reduction ([2]; starting dose 40 mg once a day, chest CT at 9 weeks) | patients with confirmed partial response or stable disease for 6 months or longer (medullary thyroid cancer) | TT xenograft tumor growth (TT xenograft tumors; 10- and 30-mg/kg doses) | TT xenograft tumor growth outcome (TT xenograft tumors; 30- and 60-mg/kg doses) | peak cyclical plasma concentrations [3]
1 | CNC(=O)c1cc(Oc2ccc(NC(=O)Nc3ccc(Cl)c(C(F)(F)F)c3)cc2)ccn1 [sorafenib] | diminished |  |  |  |  |  |  |  |  |  |  |  | 
2 | COc1cc2nccc(Oc3ccc(NC(=O)C4(C(=O)Nc5ccc(F)cc5)CC4)cc3)c2cc1OC [Compound 1, N-(4-{[6,7-bis(methyloxy)quinolin-4-yl]oxy}phenyl)-N′-(4-fluorophenyl)cyclopropane-1,1-dicarboxamide] |  | 4 to 24 h | ≤ 48 h | dose-dependent inhibition of phosphorylation of RET | 4 to 24 h | well tolerated | grade 3 serum lipase elevations | partial response | 40.1% | 68% | dose-dependent inhibition | stable disease | 3,000 to 45,000 nmol/L
